Laboratory results: ChEMBL document CHEMBL2169877, “Antagonists of 5-HT₆ receptors. Substituted 3-(phenylsulfonyl)pyrazolo[1,5-a]pyrido[3,4-e]pyrimidines and 3-(phenylsulfonyl)pyrazolo[1,5-a]pyrido[4,3-d]pyrimidines-Synthesis and 'structure-activity' relationship” (Bioorg Med Chem Lett, 2012)
The source made the active and inactive calls. No cut-off for these calls is given here.

What was measured:
[1] = target: T1, 5-hydroxytryptamine receptor 6 (Homo sapiens, UniProt P50406); assay: Antagonist activity at human recombinant 5HT6 receptor expressed in […] cells assessed as inhibition of serotonin-induced cAMP accumulation after 2 hrs; type: functional, cell-based, HEK293
[2] = target: T1, 5-hydroxytryptamine receptor 6; assay: Displacement of [3H]lysergic acid diethylamide from human recombinant 5HT6 receptor expressed in HeLa cells after 120 mins; type: cell-based
[3] = Binding affinity to P2X receptor at 1 uM by radioligand displacement assay
[4] = target: Sodium-dependent noradrenaline transporter (Homo sapiens) (UniProt P23975); assay: Binding affinity to NET at 1 uM by radioligand displacement assay
[5] = target: Alpha-1A adrenergic receptor (Homo sapiens) (UniProt P35348); assay: Binding affinity to alpha1A adrenergic receptor at 1 uM by radioligand displacement assay
[6] = target: Amine oxidase [flavin-containing] A (Homo sapiens, UniProt P21397); assay: Binding affinity to MAO-A at 1 uM by radioligand displacement assay
[7] = Binding affinity to L-type calcium channel benzothiazepine binding site at 1 uM by radioligand displacement assay
[8] = Binding affinity to PDE3 at 1 uM by radioligand displacement assay
[9] = target: 5-hydroxytryptamine receptor 5A (Homo sapiens) (UniProt P47898); assay: Binding affinity to 5HT5 receptor at 1 uM by radioligand displacement assay
[10] = target: Adenosine receptor A3 (Homo sapiens) (UniProt P0DMS8); assay: Binding affinity to adenosine A3 receptor at 1 uM by radioligand displacement assay
[11] = target: 5-hydroxytryptamine receptor 2C (Homo sapiens) (UniProt P28335); assay: Binding affinity to 5HT2C receptor at 1 uM by radioligand displacement assay
[12] = target: D(1A) dopamine receptor (Homo sapiens) (UniProt P21728); assay: Binding affinity to dopamine D1 receptor at 1 uM by radioligand displacement assay
[13] = Binding affinity to central-type GABA(A) receptor flunitrazepam binding site at 1 uM by radioligand displacement assay
[14] = target: Glycogen synthase kinase-3 beta (Homo sapiens) (UniProt P49841); assay: Binding affinity to GSK3beta at 1 uM by radioligand displacement assay
[15] = target: Acetylcholinesterase (Homo sapiens) (UniProt P22303); assay: Binding affinity to AChE at 1 uM by radioligand displacement assay
[16] = target: Histamine H1 receptor (Homo sapiens) (UniProt P35367); assay: Binding affinity to histamine receptor H1 at 1 uM by radioligand displacement assay
[17] = Binding affinity to N-type calcium channel at 1 uM by radioligand displacement assay
[18] = target: T2, 5-hydroxytryptamine receptor 2B (Homo sapiens, UniProt P41595); assay: Antagonist activity at human recombinant 5HT2B receptor expressed in HEK293 cells assessed as inhibition of alphamethyl5HT-induced intracellular calcium mobilization by Fluo4-based staining method; type: functional, cell-based
[19] = Binding affinity to PDE2 at 1 uM by radioligand displacement assay
[20] = target: Cyclin-dependent kinase 1/cyclin B1 (Homo sapiens) (UniProt P06493+P14635); assay: Binding affinity to CDK1/cyclin B at 1 uM by radioligand displacement assay; type: protein-complex assay
[21] = target: D(2) dopamine receptor (Homo sapiens) (UniProt P14416); assay: Binding affinity to dopamine D2S receptor at 1 uM by radioligand displacement assay
[22] = Binding affinity to central-type GABA(A) receptor muscimol binding site at 1 uM by radioligand displacement assay
[23] = target: RAC-alpha serine/threonine-protein kinase (Homo sapiens) (UniProt P31749); assay: Binding affinity to AKT1 at 1 uM by radioligand displacement assay
[24] = target: 5-hydroxytryptamine receptor 4 (Homo sapiens) (UniProt Q13639); assay: Binding affinity to 5HT4 receptor at 1 uM by radioligand displacement assay
[25] = target: Cannabinoid receptor 2 (Homo sapiens) (UniProt P34972); assay: Binding affinity to CB2 receptor at 1 uM by radioligand displacement assay
[26] = target: Muscarinic acetylcholine receptor M2 (Homo sapiens) (UniProt P08172); assay: Binding affinity to M2 receptor at 1 uM by radioligand displacement assay
[27] = target: Cyclin-dependent kinase 5/CDK5 activator 1 (Homo sapiens) (UniProt Q00535+Q15078); assay: Binding affinity to cdk5/p35 at 1 uM by radioligand displacement assay; type: protein-complex assay
[28] = Binding affinity to sodium channel site 2 at 1 uM by radioligand displacement assay
[29] = Binding affinity to PKC at 1 uM by radioligand displacement assay
[30] = Binding affinity to peripheral benzodiazepine receptor at 1 uM by radioligand displacement assay
[31] = target: 5-hydroxytryptamine receptor 3A (Homo sapiens) (UniProt P46098); assay: Binding affinity to 5HT3 receptor at 1 uM by radioligand displacement assay
[32] = target: Sodium-dependent serotonin transporter (Homo sapiens) (UniProt P31645); assay: Binding affinity to serotonin transporter at 1 uM by radioligand displacement assay
[33] = target: Alpha-2A adrenergic receptor (Homo sapiens) (UniProt P08913); assay: Binding affinity to alpha2A adrenergic receptor at 1 uM by radioligand displacement assay
[34] = target: Nitric oxide synthase, inducible (Homo sapiens) (UniProt P35228); assay: Binding affinity to iNOS at 1 uM by radioligand displacement assay
[35] = Binding affinity to L-type calcium channel phenylalkylamine binding site at 1 uM by radioligand displacement assay
[36] = Binding affinity to glycine transporter at 1 uM by radioligand displacement assay
[37] = target: D(2) dopamine receptor (Homo sapiens) (UniProt P14416); assay: Binding affinity to dopamine D2L receptor at 1 uM by radioligand displacement assay
[38] = Binding affinity to GABA transporter at 1 uM by radioligand displacement assay
[39] = target: Corticotropin-releasing factor receptor 1 (Homo sapiens) (UniProt P34998); assay: Binding affinity to CRF1R at 1 uM by radioligand displacement assay
[40] = target: Nitric oxide synthase 1 (Homo sapiens) (UniProt P29475); assay: Binding affinity to nNOS at 1 uM by radioligand displacement assay
[41] = target: cAMP and cAMP-inhibited cGMP 3',5'-cyclic phosphodiesterase 10A (Homo sapiens) (UniProt Q9Y233); assay: Binding affinity to PDE10A1 at 1 uM by radioligand displacement assay
[42] = target: 5-hydroxytryptamine receptor 1A (Homo sapiens) (UniProt P08908); assay: Binding affinity to 5HT1A receptor at 1 uM by radioligand displacement assay
[43] = target: Adenosine receptor A2a (Homo sapiens) (UniProt P29274); assay: Binding affinity to adenosine A2A receptor at 1 uM by radioligand displacement assay
[44] = target: Alpha-1B adrenergic receptor (Homo sapiens) (UniProt P35368); assay: Binding affinity to alpha1B adrenergic receptor at 1 uM by radioligand displacement assay
[45] = target: Beta-2 adrenergic receptor (Homo sapiens) (UniProt P07550); assay: Binding affinity to beta2 adrenergic receptor at 1 uM by radioligand displacement assay
[46] = target: Cyclin-dependent kinase 2/cyclin A (Homo sapiens) (UniProt P24941+P20248+P78396); assay: Binding affinity to CDK2/cyclin A at 1 uM by radioligand displacement assay; type: protein-complex assay
[47] = target: Amine oxidase [flavin-containing] B (Homo sapiens, UniProt P27338); assay: Binding affinity to MAO-B at 1 uM by radioligand displacement assay
[48] = target: 5-hydroxytryptamine receptor 1B (Homo sapiens) (UniProt P28222); assay: Binding affinity to 5HT1B receptor at 1 uM by radioligand displacement assay
[49] = target: Cannabinoid receptor 1 (Homo sapiens) (UniProt P21554); assay: Binding affinity to CB1 receptor at 1 uM by radioligand displacement assay
[50] = Binding affinity to PDE4 at 1 uM by radioligand displacement assay
[51] = Binding affinity to Glutamate receptor at 1 uM by radioligand displacement assay
[52] = target: D(3) dopamine receptor (Homo sapiens) (UniProt P35462); assay: Binding affinity to dopamine D3 receptor at 1 uM by radioligand displacement assay
[53] = target: Histamine H2 receptor (Homo sapiens) (UniProt P25021); assay: Binding affinity to histamine receptor H2 at 1 uM by radioligand displacement assay
[54] = Binding affinity to GABA(A) receptor TBOB binding site at 1 uM by radioligand displacement assay
[55] = target: Muscarinic acetylcholine receptor M1 (Homo sapiens) (UniProt P11229); assay: Binding affinity to M1 receptor at 1 uM by radioligand displacement assay
[56] = Binding affinity to GABA(A) receptor TBOP binding site at 1 uM by radioligand displacement assay
[57] = Binding affinity to PDE5 at 1 uM by radioligand displacement assay
[58] = Binding affinity to adenosine transporter at 1 uM by radioligand displacement assay
[59] = Binding affinity to P2Y receptor at 1 uM by radioligand displacement assay
[60] = target: Adenosine receptor A1 (Homo sapiens) (UniProt P30542); assay: Binding affinity to adenosine A1 receptor at 1 uM by radioligand displacement assay
[61] = target: T2, 5-hydroxytryptamine receptor 2B; assay: Displacement of [3H]lysergic acid diethylamide from human recombinant 5HT2B receptor at 1 uM
[62] = target: Beta-1 adrenergic receptor (Homo sapiens) (UniProt P08588); assay: Binding affinity to beta1 adrenergic receptor at 1 uM by radioligand displacement assay
[63] = Binding affinity to PDE1 at 1 uM by radioligand displacement assay
[64] = Binding affinity to choline transporter at 1 uM by radioligand displacement assay
[65] = target: Metabotropic glutamate receptor 5 (Homo sapiens) (UniProt P41594); assay: Binding affinity to mGluR5 at 1 uM by radioligand displacement assay
[66] = target: Alpha-2B adrenergic receptor (Homo sapiens) (UniProt P18089); assay: Binding affinity to alpha2B adrenergic receptor at 1 uM by radioligand displacement assay
[67] = Binding affinity to GABA(A) receptor RO-15-1788 binding site at 1 uM by radioligand displacement assay
[68] = target: Sodium-dependent dopamine transporter (Homo sapiens) (UniProt Q01959); assay: Binding affinity to DAT at 1 uM by radioligand displacement assay
[69] = target: Histamine H3 receptor (Homo sapiens) (UniProt Q9Y5N1); assay: Binding affinity to histamine receptor H3 at 1 uM by radioligand displacement assay
[70] = Binding affinity to GABA-B receptor at 1 uM by radioligand displacement assay
[71] = target: Voltage-gated inwardly rectifying potassium channel KCNH2 (Homo sapiens, UniProt Q12809); assay: Inhibition of human recombinant ERG channel expressed in […] cells after 3 to 8 mins by voltage clamp assay; type: cell-based
[72] = target: T2, 5-hydroxytryptamine receptor 2B; assay: Agonist activity at human recombinant 5HT2B receptor expressed in HEK293 cells assessed as increase in intracellular calcium mobilization by Fluo4-based staining method; type: functional, cell-based

T1 sequence (P50406 whole entry): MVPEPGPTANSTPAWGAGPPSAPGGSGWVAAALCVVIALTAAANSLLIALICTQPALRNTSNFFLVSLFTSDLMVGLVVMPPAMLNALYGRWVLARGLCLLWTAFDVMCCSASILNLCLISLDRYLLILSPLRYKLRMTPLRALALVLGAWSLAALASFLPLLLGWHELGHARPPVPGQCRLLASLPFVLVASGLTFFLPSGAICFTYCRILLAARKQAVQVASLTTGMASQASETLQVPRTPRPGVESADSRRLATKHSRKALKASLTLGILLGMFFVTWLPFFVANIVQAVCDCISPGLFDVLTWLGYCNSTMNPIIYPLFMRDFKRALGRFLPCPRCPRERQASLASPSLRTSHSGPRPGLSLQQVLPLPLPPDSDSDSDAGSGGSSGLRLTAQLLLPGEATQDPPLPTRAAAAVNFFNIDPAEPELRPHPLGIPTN
T2 sequence (P41595 whole entry): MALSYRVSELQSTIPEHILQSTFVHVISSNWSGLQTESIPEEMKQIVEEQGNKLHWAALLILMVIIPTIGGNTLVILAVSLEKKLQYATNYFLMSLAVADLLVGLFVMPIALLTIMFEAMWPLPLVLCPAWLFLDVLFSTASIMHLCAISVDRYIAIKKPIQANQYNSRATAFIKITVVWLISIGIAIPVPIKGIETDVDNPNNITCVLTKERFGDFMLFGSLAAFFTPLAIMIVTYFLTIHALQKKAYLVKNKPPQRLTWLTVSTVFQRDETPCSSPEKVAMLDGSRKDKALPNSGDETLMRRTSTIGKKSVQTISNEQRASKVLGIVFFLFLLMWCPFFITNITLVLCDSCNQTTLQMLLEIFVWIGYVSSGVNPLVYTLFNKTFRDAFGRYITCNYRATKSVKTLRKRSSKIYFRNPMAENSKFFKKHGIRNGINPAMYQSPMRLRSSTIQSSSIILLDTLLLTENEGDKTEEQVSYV
D(2) dopamine receptor (Homo sapiens), sequence (P14416 whole entry): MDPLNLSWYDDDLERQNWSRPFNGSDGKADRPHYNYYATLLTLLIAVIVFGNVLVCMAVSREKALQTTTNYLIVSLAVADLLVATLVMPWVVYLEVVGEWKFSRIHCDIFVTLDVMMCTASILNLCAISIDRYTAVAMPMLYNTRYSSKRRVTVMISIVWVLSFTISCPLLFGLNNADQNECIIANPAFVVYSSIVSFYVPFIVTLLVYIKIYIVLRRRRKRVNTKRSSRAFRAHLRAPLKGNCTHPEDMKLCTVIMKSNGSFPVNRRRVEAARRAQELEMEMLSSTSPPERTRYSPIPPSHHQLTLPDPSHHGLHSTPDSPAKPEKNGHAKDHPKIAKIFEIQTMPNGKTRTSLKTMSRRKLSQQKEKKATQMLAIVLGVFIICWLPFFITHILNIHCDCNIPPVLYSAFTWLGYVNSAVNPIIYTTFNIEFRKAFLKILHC
Amine oxidase [flavin-containing] A, sequence (P21397 whole entry): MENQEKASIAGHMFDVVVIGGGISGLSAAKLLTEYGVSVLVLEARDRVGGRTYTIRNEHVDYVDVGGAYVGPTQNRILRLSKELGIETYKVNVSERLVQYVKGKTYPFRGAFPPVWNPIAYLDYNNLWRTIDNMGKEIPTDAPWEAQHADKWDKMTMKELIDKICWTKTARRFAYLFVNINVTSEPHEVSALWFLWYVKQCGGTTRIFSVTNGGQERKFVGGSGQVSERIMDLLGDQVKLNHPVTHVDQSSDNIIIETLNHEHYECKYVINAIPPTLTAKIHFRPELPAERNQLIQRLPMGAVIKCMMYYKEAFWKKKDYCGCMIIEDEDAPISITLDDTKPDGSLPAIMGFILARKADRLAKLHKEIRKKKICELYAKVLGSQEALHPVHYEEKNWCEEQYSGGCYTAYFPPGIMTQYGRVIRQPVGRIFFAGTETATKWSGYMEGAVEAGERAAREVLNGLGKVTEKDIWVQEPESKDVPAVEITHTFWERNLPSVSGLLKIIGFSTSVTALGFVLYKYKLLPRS
5-hydroxytryptamine receptor 2C (Homo sapiens), sequence (P28335 whole entry): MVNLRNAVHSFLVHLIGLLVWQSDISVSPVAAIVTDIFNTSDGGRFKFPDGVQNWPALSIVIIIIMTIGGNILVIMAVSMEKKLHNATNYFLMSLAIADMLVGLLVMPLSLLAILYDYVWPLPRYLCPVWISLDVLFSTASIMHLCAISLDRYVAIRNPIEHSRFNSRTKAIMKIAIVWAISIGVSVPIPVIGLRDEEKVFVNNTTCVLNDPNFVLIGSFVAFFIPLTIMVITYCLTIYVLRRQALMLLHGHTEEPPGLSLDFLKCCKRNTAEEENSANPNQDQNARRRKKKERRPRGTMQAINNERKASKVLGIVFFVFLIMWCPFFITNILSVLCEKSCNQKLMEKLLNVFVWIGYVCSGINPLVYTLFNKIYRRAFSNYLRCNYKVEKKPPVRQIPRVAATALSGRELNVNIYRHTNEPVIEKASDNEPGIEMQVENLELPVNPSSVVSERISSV
5-hydroxytryptamine receptor 1A (Homo sapiens), sequence (P08908 whole entry): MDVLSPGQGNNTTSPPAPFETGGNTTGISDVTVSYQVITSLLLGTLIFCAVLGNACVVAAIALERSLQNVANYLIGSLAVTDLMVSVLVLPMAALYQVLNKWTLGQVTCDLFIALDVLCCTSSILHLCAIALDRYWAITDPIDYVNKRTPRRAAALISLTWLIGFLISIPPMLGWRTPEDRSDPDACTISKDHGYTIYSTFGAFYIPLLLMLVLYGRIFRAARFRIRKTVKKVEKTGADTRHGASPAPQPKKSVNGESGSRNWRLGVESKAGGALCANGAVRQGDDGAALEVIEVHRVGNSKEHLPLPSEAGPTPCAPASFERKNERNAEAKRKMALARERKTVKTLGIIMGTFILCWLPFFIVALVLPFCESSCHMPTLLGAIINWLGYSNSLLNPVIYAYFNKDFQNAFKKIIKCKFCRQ
D(1A) dopamine receptor (Homo sapiens), sequence (P21728 whole entry): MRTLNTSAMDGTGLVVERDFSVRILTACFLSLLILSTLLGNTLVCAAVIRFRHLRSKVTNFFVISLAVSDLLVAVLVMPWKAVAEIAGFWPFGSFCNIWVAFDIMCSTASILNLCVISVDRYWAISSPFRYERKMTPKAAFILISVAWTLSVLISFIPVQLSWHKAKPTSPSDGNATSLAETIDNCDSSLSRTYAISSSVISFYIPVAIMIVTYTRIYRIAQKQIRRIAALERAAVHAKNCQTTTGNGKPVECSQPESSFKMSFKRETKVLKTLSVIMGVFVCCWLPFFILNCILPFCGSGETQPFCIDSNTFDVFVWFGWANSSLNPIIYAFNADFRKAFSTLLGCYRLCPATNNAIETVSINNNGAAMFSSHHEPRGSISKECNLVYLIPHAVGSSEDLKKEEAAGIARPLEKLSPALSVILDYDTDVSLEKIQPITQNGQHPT
Cannabinoid receptor 1 (Homo sapiens), sequence (P21554 whole entry): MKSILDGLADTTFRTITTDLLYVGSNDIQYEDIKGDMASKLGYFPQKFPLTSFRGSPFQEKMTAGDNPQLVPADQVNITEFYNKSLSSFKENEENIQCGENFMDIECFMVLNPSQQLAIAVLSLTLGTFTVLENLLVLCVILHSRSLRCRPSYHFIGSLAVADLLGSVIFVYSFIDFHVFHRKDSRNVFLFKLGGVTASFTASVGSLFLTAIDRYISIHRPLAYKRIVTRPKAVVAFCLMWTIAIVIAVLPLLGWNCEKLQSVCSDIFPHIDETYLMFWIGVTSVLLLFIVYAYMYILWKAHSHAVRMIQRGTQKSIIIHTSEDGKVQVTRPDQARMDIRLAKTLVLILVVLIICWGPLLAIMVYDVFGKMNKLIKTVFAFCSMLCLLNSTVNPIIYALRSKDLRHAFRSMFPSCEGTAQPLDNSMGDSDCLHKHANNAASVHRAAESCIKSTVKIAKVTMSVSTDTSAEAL
Nitric oxide synthase, inducible (Homo sapiens), sequence (P35228 whole entry): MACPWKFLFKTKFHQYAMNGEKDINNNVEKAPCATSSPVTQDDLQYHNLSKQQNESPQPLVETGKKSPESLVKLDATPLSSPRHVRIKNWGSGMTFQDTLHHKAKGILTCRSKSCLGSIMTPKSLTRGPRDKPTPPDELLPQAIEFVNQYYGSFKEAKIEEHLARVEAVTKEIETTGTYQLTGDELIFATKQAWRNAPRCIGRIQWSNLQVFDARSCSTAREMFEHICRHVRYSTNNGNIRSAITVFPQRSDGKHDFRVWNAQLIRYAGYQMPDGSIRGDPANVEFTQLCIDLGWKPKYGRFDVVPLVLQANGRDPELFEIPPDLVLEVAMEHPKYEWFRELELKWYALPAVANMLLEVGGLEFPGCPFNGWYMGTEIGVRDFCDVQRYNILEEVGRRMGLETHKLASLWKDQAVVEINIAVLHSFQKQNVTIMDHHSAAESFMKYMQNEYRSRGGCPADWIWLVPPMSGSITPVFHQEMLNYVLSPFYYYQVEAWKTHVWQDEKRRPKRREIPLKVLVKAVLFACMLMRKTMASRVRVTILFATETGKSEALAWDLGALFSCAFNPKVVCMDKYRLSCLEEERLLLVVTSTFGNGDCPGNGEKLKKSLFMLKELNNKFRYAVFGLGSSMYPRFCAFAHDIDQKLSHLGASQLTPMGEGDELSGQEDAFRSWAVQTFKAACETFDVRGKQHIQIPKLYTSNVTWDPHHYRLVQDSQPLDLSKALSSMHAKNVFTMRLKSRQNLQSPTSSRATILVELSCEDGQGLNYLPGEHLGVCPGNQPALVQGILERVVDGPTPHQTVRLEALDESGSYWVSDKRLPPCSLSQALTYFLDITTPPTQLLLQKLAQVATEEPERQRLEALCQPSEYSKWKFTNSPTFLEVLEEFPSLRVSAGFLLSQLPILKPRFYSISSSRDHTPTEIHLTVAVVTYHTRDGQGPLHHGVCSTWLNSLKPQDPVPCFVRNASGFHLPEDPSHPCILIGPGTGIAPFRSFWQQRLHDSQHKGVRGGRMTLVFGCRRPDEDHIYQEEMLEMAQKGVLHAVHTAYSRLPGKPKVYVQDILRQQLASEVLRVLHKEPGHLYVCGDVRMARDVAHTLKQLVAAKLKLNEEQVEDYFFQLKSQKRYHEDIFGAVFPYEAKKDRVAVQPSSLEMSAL

SMILES: CNc1nn2c3c(cnc2c1S(=O)(=O)c1ccccc1)CNCC3
- Ki [1]: 1.9 nM

SMILES: CNc1nn2cc3c(nc2c1S(=O)(=O)c1ccccc1)CCN(C)C3
- Ki [2]: 0.82 nM
- Activity [3]: inactive
- Activity [4]: inactive
- Activity [5]: inactive
- Activity [6]: Not Active
- Activity [7]: inactive
- Activity [8]: inactive
- Activity [9]: inactive
- Activity [10]: inactive
- Activity [11]: inactive
- Activity [12]: inactive
- Activity [13]: inactive
- Activity [14]: inactive
- Activity [15]: inactive
- Activity [16]: inactive
- Activity [17]: inactive
- IC50 ([18]; hek293): Not Active
- Activity [19]: inactive
- Activity [20]: inactive
- Activity [21]: inactive
- Activity [22]: inactive
- Activity [23]: inactive
- Activity [24]: inactive
- Activity [25]: inactive
- Activity [26]: inactive
- Activity [27]: inactive
- Activity [28]: inactive
- Activity [29]: inactive
- Activity [30]: inactive
- Activity [31]: inactive
- Activity [32]: inactive
- Activity [33]: inactive
- Activity [34]: inactive
- Activity [35]: inactive
- Activity [36]: inactive
- Activity [37]: inactive
- Activity [38]: inactive
- Activity [39]: inactive
- Activity [40]: inactive
- Activity [41]: inactive
- Activity [42]: inactive
- Activity [43]: inactive
- Activity [44]: inactive
- Activity [45]: inactive
- Activity [46]: inactive
- Activity [47]: Not Active
- Activity [48]: inactive
- Activity [49]: inactive
- Activity [50]: inactive
- Activity [51]: inactive
- Activity [52]: inactive
- Activity [53]: inactive
- Activity [54]: inactive
- Activity [55]: inactive
- Activity [56]: inactive
- Ki [1]: 14.3 nM
- Activity [57]: inactive
- Activity [58]: inactive
- Activity [59]: inactive
- Activity [60]: inactive
- Activity [61]: inactive
- Activity [62]: inactive
- Activity [63]: inactive
- Activity [64]: inactive
- Activity [65]: inactive
- Activity [66]: inactive
- Activity [67]: inactive
- Activity [68]: inactive
- Activity [69]: inactive
- Activity [70]: inactive

SMILES: Cc1nn2c3c(cnc2c1S(=O)(=O)c1ccccc1)CN(C)CC3
- Ki [2]: 60.4 nM

SMILES: CSc1nn2c3c(cnc2c1S(=O)(=O)c1ccc(F)cc1)CN(C)CC3
- Ki [2]: 35.7 nM

SMILES: CSc1nn2c3c(cnc2c1S(=O)(=O)c1ccccc1)CN(C)CC3
- Ki [2]: 7.7 nM
- Ki [1]: 14.8 nM

SMILES: CNc1nn2cc3c(nc2c1S(=O)(=O)c1ccccc1)CCNC3
- Ki [1]: 2.1 nM

SMILES: CSc1nn2cc3c(nc2c1S(=O)(=O)c1ccccc1)CCN(C)C3
- Ki [1]: 492 nM

SMILES: CNc1nn2c3c(cnc2c1S(=O)(=O)c1ccccc1)CN(C)CC3
- Ki [2]: 0.39 nM
- inhibition [18]: Dose-dependent effect
- IC50 ([18]; read-out: IC50): 6160 nM
- IC50 [71]: 54200 nM
- Activity [72]: inactive
- Ki [1]: 1.8 nM
- Activity [61]: 50%

SMILES: CSc1nn2cc3c(nc2c1S(=O)(=O)c1ccc(F)cc1)CCN(C)C3
- Ki [1]: 1160 nM

SMILES: Cc1nn2cc3c(nc2c1S(=O)(=O)c1ccccc1)CCN(C)C3
- Ki [2]: > 10000 nM
